Results: publication PMC11189555, “Aryl amino acetamides prevent Plasmodium falciparum ring development via targeting the lipid-transfer protein PfSTART1” (Nature Communications, 2024)

Experiments:
[1] = tested on: PopD-D7 M-833 resistant clone (PfSTART1 N309K); assay: Growth inhibition assay (72 h, LDH activity); format: cell-based, Plasmodium falciparum; conditions: for (av-uRBC) / (DMSO-uRBC) x100: PopD-D7
How it was run: (§1)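 Synchronised ring-stage 3D7-derived clones (0.3-0.6% parasitemia, 2% haematocrit) grown 72 h in compound serial dilutions, some with 0, 0.25 or 2.5 mM glucosamine. Growth read as LDH activity after freeze-thaw (Malstat/NBT, A650), normalised to DMSO and uninfected RBC; EC50 from variable-slope log(inhibitor) fit.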

in vitro = conditions: human
[2] = tested on: PopE-F10 M-833 resistant clone (PfSTART1 N330K); assay: Growth inhibition assay (72 h, LDH activity); format: cell-based, Plasmodium falciparum
How it was run: as §1

## O=C(CNc1ccc(Cl)c(S(=O)(=O)N2CCOCC2)c1)Nc1ccc(F)c(Cl)c1 [compound 2, reference compound]
[1]; Plasmodium falciparum, Supplementary Table 1, PopD-D7 (N309K), 72 h, read-out: EC50
  EC50: > 20 µM
[1]; PopD-D7 (N309K), Fig 4B
  resistance of the line compared with 3D7: highly resistant
[1]; conc. 3.04832 nM, Biological replicate 1 (2021-10-25)
  (av-uRBC) / (DMSO-uRBC) x100: 108.297
[1]; conc. 3.04832 nM, Biological replicate 2 (2021-11-03)
  (av-uRBC) / (DMSO-uRBC) x100: 110.746
[1]; conc. 3.04832 nM, Biological replicate 3 (2021-11-11)
  (av-uRBC) / (DMSO-uRBC) x100: 101.173
[1]; conc. 9.14495 nM, Biological replicate 1 (2021-10-25)
  (av-uRBC) / (DMSO-uRBC) x100: 111.853
[1]; conc. 9.14495 nM, Biological replicate 2 (2021-11-03)
  (av-uRBC) / (DMSO-uRBC) x100: 111.153
[1]; conc. 9.14495 nM, Biological replicate 3 (2021-11-11)
  (av-uRBC) / (DMSO-uRBC) x100: 114.836
[1]; conc. 27.4348 nM, Biological replicate 1 (2021-10-25)
  (av-uRBC) / (DMSO-uRBC) x100: 111.176
[1]; conc. 27.4348 nM, Biological replicate 2 (2021-11-03)
  (av-uRBC) / (DMSO-uRBC) x100: 111.76
[1]; conc. 27.4348 nM, Biological replicate 3 (2021-11-11)
  (av-uRBC) / (DMSO-uRBC) x100: 128.575
[1]; conc. 82.3045 nM, Biological replicate 1 (2021-10-25)
  (av-uRBC) / (DMSO-uRBC) x100: 109.097
[1]; conc. 82.3045 nM, Biological replicate 2 (2021-11-03)
  (av-uRBC) / (DMSO-uRBC) x100: 114.254
[1]; conc. 82.3045 nM, Biological replicate 3 (2021-11-11)
  (av-uRBC) / (DMSO-uRBC) x100: 124.242
[1]; conc. 246.914 nM, Biological replicate 1 (2021-10-25)
  (av-uRBC) / (DMSO-uRBC) x100: 110.536
[1]; conc. 246.914 nM, Biological replicate 2 (2021-11-03)
  (av-uRBC) / (DMSO-uRBC) x100: 113.933
[1]; conc. 246.914 nM, Biological replicate 3 (2021-11-11)
  (av-uRBC) / (DMSO-uRBC) x100: 129.518
[1]; conc. 740.741 nM, Biological replicate 1 (2021-10-25)
  (av-uRBC) / (DMSO-uRBC) x100: 106.002
[1]; conc. 740.741 nM, Biological replicate 2 (2021-11-03)
  (av-uRBC) / (DMSO-uRBC) x100: 112.781
[1]; conc. 740.741 nM, Biological replicate 3 (2021-11-11)
  (av-uRBC) / (DMSO-uRBC) x100: 117.002
[1]; conc. 2222.22 nM, Biological replicate 1 (2021-10-25)
  (av-uRBC) / (DMSO-uRBC) x100: 103.716
[1]; conc. 2222.22 nM, Biological replicate 2 (2021-11-03)
  (av-uRBC) / (DMSO-uRBC) x100: 111.361
[1]; conc. 2222.22 nM, Biological replicate 3 (2021-11-11)
  (av-uRBC) / (DMSO-uRBC) x100: 123.604
[1]; conc. 6666.67 nM, Biological replicate 1 (2021-10-25)
  (av-uRBC) / (DMSO-uRBC) x100: 102.822
[1]; conc. 6666.67 nM, Biological replicate 2 (2021-11-03)
  (av-uRBC) / (DMSO-uRBC) x100: 107.742
[1]; conc. 6666.67 nM, Biological replicate 3 (2021-11-11)
  (av-uRBC) / (DMSO-uRBC) x100: 113.943
[1]; conc. 20000 nM, Biological replicate 1 (2021-10-25)
  (av-uRBC) / (DMSO-uRBC) x100: 68.9276
[1]; conc. 20000 nM, Biological replicate 2 (2021-11-03)
  (av-uRBC) / (DMSO-uRBC) x100: 85.5559
[1]; conc. 20000 nM, Biological replicate 3 (2021-11-11)
  (av-uRBC) / (DMSO-uRBC) x100: 59.2149
[1]; Supplementary Table 1, EC50 on PopD-D7 vs 3D7
  Fold change compared to 3D7: > 117 fold
In vitro
  CC50: > 40 µM
[2]; Plasmodium falciparum, 72 h, Supplementary Table 1, PopE-F10 (N330K)
  EC50: > 20 µM
[2]; PopE-F10 (N330K), Fig 4B
  resistance of the line compared with 3D7: highly resistant
[2]; PopE-F10, 3.04832 nM, biological replicate 1
  (av-uRBC) / (DMSO-uRBC) x100: 114.401
[2]; PopE-F10, 3.04832 nM, biological replicate 2
  (av-uRBC) / (DMSO-uRBC) x100: 112.198
[2]; PopE-F10, 3.04832 nM, biological replicate 3
  (av-uRBC) / (DMSO-uRBC) x100: 118.159
[2]; PopE-F10, 9.14495 nM, biological replicate 1
  (av-uRBC) / (DMSO-uRBC) x100: 113.83
[2]; PopE-F10, 9.14495 nM, biological replicate 2
  (av-uRBC) / (DMSO-uRBC) x100: 112.634
[2]; PopE-F10, 9.14495 nM, biological replicate 3
  (av-uRBC) / (DMSO-uRBC) x100: 115.839
[2]; PopE-F10, 27.4348 nM, biological replicate 1
  (av-uRBC) / (DMSO-uRBC) x100: 109.84
[2]; PopE-F10, 27.4348 nM, biological replicate 2
  (av-uRBC) / (DMSO-uRBC) x100: 113.332
[2]; PopE-F10, 27.4348 nM, biological replicate 3
  (av-uRBC) / (DMSO-uRBC) x100: 126.539
[2]; PopE-F10, 82.3045 nM, biological replicate 1
  (av-uRBC) / (DMSO-uRBC) x100: 112.064
[2]; PopE-F10, 82.3045 nM, biological replicate 2
  (av-uRBC) / (DMSO-uRBC) x100: 115.064
[2]; PopE-F10, 82.3045 nM, biological replicate 3
  (av-uRBC) / (DMSO-uRBC) x100: 112.119
[2]; PopE-F10, 246.914 nM, biological replicate 1
  (av-uRBC) / (DMSO-uRBC) x100: 108.998
[2]; PopE-F10, 246.914 nM, biological replicate 2
  (av-uRBC) / (DMSO-uRBC) x100: 111.627
[2]; PopE-F10, 246.914 nM, biological replicate 3
  (av-uRBC) / (DMSO-uRBC) x100: 122.435
[2]; PopE-F10, 740.741 nM, biological replicate 1
  (av-uRBC) / (DMSO-uRBC) x100: 107.242
[2]; PopE-F10, 740.741 nM, biological replicate 2
  (av-uRBC) / (DMSO-uRBC) x100: 111.201
[2]; PopE-F10, 740.741 nM, biological replicate 3
  (av-uRBC) / (DMSO-uRBC) x100: 127.133
[2]; PopE-F10, 2222.22 nM, biological replicate 1
  (av-uRBC) / (DMSO-uRBC) x100: 102.224
[2]; PopE-F10, 2222.22 nM, biological replicate 2
  (av-uRBC) / (DMSO-uRBC) x100: 112.371
[2]; PopE-F10, 2222.22 nM, biological replicate 3
  (av-uRBC) / (DMSO-uRBC) x100: 122.627
[2]; PopE-F10, 6666.67 nM, biological replicate 1
  (av-uRBC) / (DMSO-uRBC) x100: 102.39
[2]; PopE-F10, 6666.67 nM, biological replicate 2
  (av-uRBC) / (DMSO-uRBC) x100: 105.46
[2]; PopE-F10, 6666.67 nM, biological replicate 3
  (av-uRBC) / (DMSO-uRBC) x100: 111.965
[2]; PopE-F10, 20000 nM, biological replicate 1
  (av-uRBC) / (DMSO-uRBC) x100: 70.532
[2]; PopE-F10, 20000 nM, biological replicate 2
  (av-uRBC) / (DMSO-uRBC) x100: 73.7076
[2]; PopE-F10, 20000 nM, biological replicate 3
  (av-uRBC) / (DMSO-uRBC) x100: 50.604
[2]; Supplementary Table 1, EC50 on PopE-F10 vs 3D7
  Fold change compared to 3D7: > 117 fold
